Where two headings read alike, the source gives them in different places.

Test [1] concerns S6 Ribosomal Protein phosphorylation Ser235/236 in TSC1 null mouse embryo fibroblast (MEF) cells. Description: Reverse protein array, S6 Ribosomal Protein phosphorylation in TSC1 null MEF cells. It counts as cell-based. The conditions noted are these: 1 h, TSC1-/- MEFs, 60 minutes. In short, it runs like this:
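Phospho-S6 (Ser235/236) was quantified by reverse protein array of cell lysates with a phospho-specific primary antibody. […]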

Test [2] has as its system PKB Ser473 phosphorylation in Rat1-myr-HA-p110 delta cells. Description: Reverse protein array, PKB Ser473 phosphorylation in Rat1-myr-HA-p110 delta cells. In kind it is cell-based. The settings on record: Rattus norvegicus, 0.5 h, 30 minutes compound incubation, read-out: p-PKB/IC50_delta.

On to `COc1ccc(-c2ccc3ncc4c(c3c2)n(-c2cccnc2OC)c(=O)n4C)cn1` [Example 1.1, 1-(2-Methoxy-pyridin-3-yl)-8-(6-methoxy-pyridin-3-yl)-3-methyl-1,3-dihydro-imidazo[4,5-c]quinolin-2-one], for which the results for the IC50 in test [1] (read-out: p-S6) and in test [2] were 24.5 nM and 53.3 nM, respectively.

Consider `COc1ncccc1-n1c(=O)n(C)c2cnc3ccc(-c4cnc(N)c(C(F)(F)F)c4)cc3c21` [Example 1.3, 8-(6-Amino-5-trifluoromethyl-pyridin-3-yl)-1-(2-methoxy-pyridin-3-yl)-3-methyl-1,3-dihydro-imidazo[4,5-c]quinolin-2-one], for which the figures for the IC50 in test [1] (read-out: p-S6) and in test [2] were 1.52 nM and 15.5 nM, respectively.

As to `CNc1ccc(-c2ccc3ncc4c(c3c2)n(-c2cccnc2OC)c(=O)n4C)cn1` [Example 1.4, 1-(2-Methoxy-pyridin-3-yl)-3-methyl-8-(6-methylamino-pyridin-3-yl)-1,3-dihydro-imidazo[4,5-c]quinolin-2-one], the IC50 in test [1] (read-out: p-S6) is 8.24 nM; in test [2], 29.4 nM.

As to `CCOc1ccc(-c2ccc3ncc4c(c3c2)n(-c2cccnc2OC)c(=O)n4C)cn1` [Example 1.5, 8-(6-Ethoxy-pyridin-3-yl)-1-(2-methoxy-pyridin-3-yl)-3-methyl-1,3-dihydro-imidazo[4,5-c]quinolin-2-one], the IC50 in test [1] (read-out: p-S6) stood at 48.6 nM; in test [2], 59.6 nM.

As for `COc1ncccc1-n1c(=O)n(C)c2cnc3ccc(-c4cnc5c(ccn5C)c4)cc3c21` [Example 1.7, 1-(2-Methoxy-pyridin-3-yl)-3-methyl-8-(1-methyl-1H-pyrrolo[2,3-b]pyridin-5-yl)-1,3-dihydro-imidazo[4,5-c]quinolin-2-one], the figures for the IC50 in test [1] (read-out: p-S6) and in test [2] were 12.1 nM and 72 nM, respectively.

For the molecule `COc1ncccc1-n1c(=O)n(C)c2cnc3ccc(-c4ccc(F)nc4)cc3c21` [Example 1.8, 8-(6-Fluoro-pyridin-3-yl)-1-(2-methoxy-pyridin-3-yl)-3-methyl-1,3-dihydro-imidazo[4,5-c]quinolin-2-one], the IC50 in test [2] is 612 nM.

`COc1ncccc1-n1c(=O)n(C)c2cnc3ccc(-c4cnc(N(C)C)nc4)cc3c21` [Example 1.9, 8-(2-Dimethylamino-pyrimidin-5-yl)-1-(2-methoxy-pyridin-3-yl)-3-methyl-1,3-dihydro-imidazo[4,5-c]quinolin-2-one]: the IC50 was 32.8 nM in test [1] (read-out: p-S6) and 83.9 nM in test [2].

Regarding `CCOc1ccc(-c2ccc3ncc4c(c3c2)n(-c2cccnc2C)c(=O)n4C)cn1` [Example 2.1, 8-(6-Ethoxy-pyridin-3-yl)-3-methyl-1-(2-methyl-pyridin-3-yl)-1,3-dihydro-imidazo[4,5-c]quinolin-2-one], the IC50 in test [1] (read-out: p-S6) came out at 19 nM; in test [2] it was 96 nM.

Take `CNc1ncc(-c2ccc3ncc4c(c3c2)n(-c2cccnc2C)c(=O)n4C)cn1` [Example 2.2, 3-Methyl-8-(2-methylamino-pyrimidin-5-yl)-1-(2-methyl-pyridin-3-yl)-1,3-dihydro-imidazo[4,5-c]quinolin-2-one]: the IC50 in test [1] (read-out: p-S6) was found to be 5.33 nM; in test [2], 20.5 nM.

In the case of `Cc1ncccc1-n1c(=O)n(C)c2cnc3ccc(-c4cnc5c(ccn5C)c4)cc3c21` [Example 2.14, 3-Methyl-1-(2-methyl-pyridin-3-yl)-8-(1-methyl-1H-pyrrolo[2,3-b]pyridin-5-yl)-1,3-dihydro-imidazo[4,5-c]quinolin-2-one], the IC50 was found to be 8.74 nM in test [1] (read-out: p-S6) and 61.7 nM in test [2].

Regarding `CCOc1cc(-c2ccc3ncc4c(c3c2)n(-c2cccnc2C)c(=O)n4C)cnc1C` [Example 2.22, 8-(5-Ethoxy-6-methyl-pyridin-3-yl)-3-methyl-1-(2-methyl-pyridin-3-yl)-1,3-dihydro-imidazo[4,5-c]quinolin-2-one], the IC50 is 12 nM in test [1] (read-out: p-S6 IC50) and 75.7 nM in test [2].

As for `COc1ccc(-c2ccc3ncc4c(c3c2)n(-c2cccnc2)c(=O)n4C)cc1OC` [Example 5.2, 8-(3,4-Dimethoxy-phenyl)-3-methyl-1-pyridin-3-yl-1,3-dihydro-imidazo[4,5-c]quinolin-2-one], in test [2], the IC50 was 74.3 nM.

As for `COc1ccc(-c2ccc3ncc4c(c3c2)n(-c2cccnc2)c(=O)n4C)cn1` [Example 5.4, 8-(6-Methoxy-pyridin-3-yl)-3-methyl-1-pyridin-3-yl-1,3-dihydro-imidazo[4,5-c]quinolin-2-one], the IC50 in test [2] is 223 nM.

As for `CNc1ncc(-c2ccc3ncc4c(c3c2)n(-c2ccc(F)nc2C)c(=O)n4C)cc1F` [Example 7.12, 8-(5-Fluoro-6-methylamino-pyridin-3-yl)-1-(6-fluoro-2-methyl-pyridin-3-yl)-3-methyl-1,3-dihydro-imidazo[4,5-c]quinolin-2-one], the IC50 in test [2] was found to be 97.8 nM.

Take `CNc1ncc(-c2ccc3ncc4c(c3c2)n(-c2ccc(F)nc2C)c(=O)n4C)cc1C(F)(F)F` [Example 7.13, 1-(6-Fluoro-2-methyl-pyridin-3-yl)-3-methyl-8-(6-methylamino-5-trifluoromethyl-pyridin-3-yl)-1,3-dihydro-imidazo[4,5-c]quinolin-2-one]: in test [2], the IC50 was 37.9 nM.

Turning to `CNC(=O)c1cc(-c2ccc3ncc4c(c3c2)n(-c2ccc(F)nc2C)c(=O)n4C)cnc1N` [Example 7.14, 2-Amino-5-[1-(6-fluoro-2-methyl-pyridin-3-yl)-3-methyl-2-oxo-2,3-dihydro-1H-imidazo[4,5-c]quinolin-8-yl]-N-methyl-nicotinamide], in test [2], the IC50 is 140 nM.

Turning to `COc1ccc(-n2c(=O)n(C)c3cnc4ccc(-c5cnc(CO)c(OC)c5)cc4c32)c(C)n1` [Example 11.8, 8-(6-Hydroxymethyl-5-methoxy-pyridin-3-yl)-1-(6-methoxy-2-methyl-pyridin-3-yl)-3-methyl-1,3-dihydro-imidazo[4,5-c]quinolin-2-one], the IC50 in test [2] amounted to 114 nM.

Regarding `COCCN(C)c1ccc(-n2c(=O)n(C)c3cnc4ccc(-c5cnc(CO)c(OC)c5)cc4c32)c(C)n1` [Example 15.9, 8-(6-Hydroxymethyl-5-methoxy-pyridin-3-yl)-1-{6-[(2-methoxy-ethyl)-methyl-amino]-2-methyl-pyridin-3-yl}-3-methyl-1,3-dihydro-imidazo[4,5-c]quinolin-2-one], the IC50 in test [2] came to 38.8 nM.

`COc1cc(-c2ccc3ncc4c(c3c2)n(-c2ccc(N(C)C)nc2C)c(=O)n4C)cnc1CO` [Example 19.4, 1-(6-Dimethylamino-2-methyl-pyridin-3-yl)-8-(6-hydroxymethyl-5-methoxy-pyridin-3-yl)-3-methyl-1,3-dihydro-imidazo[4,5-c]quinolin-2-one]: in test [2], the IC50 was 74.5 nM.

With `Cc1nc(N(C)C)ccc1-n1c(=O)n(C)c2cnc3ccc(-c4cncc(N)c4)cc3c21` [Example 19.5, 8-(5-Amino-pyridin-3-yl)-1-(6-dimethylamino-2-methyl-pyridin-3-yl)-3-methyl-1,3-dihydro-imidazo[4,5-c]quinolin-2-one], the IC50 in test [2] is 46.4 nM.

With `COCC(=O)Nc1ccc(-n2c(=O)n(C)c3cnc4ccc(-c5cncc(OC(C)C)c5)cc4c32)c(C)n1` [Example 20.5, N-{5-[8-(5-Isopropoxy-pyridin-3-yl)-3-methyl-2-oxo-2,3-dihydro-imidazo[4,5-c]quinolin-1-yl]-6-methyl-pyridin-2-yl}-2-methoxy-acetamide], the IC50 in test [2] amounted to 352 nM.

These data come from US20100311714A1, “1H-IMIDAZO[4,5-c]QUINOLINONE COMPOUNDS” (priority 2009, published 2010).
